From US20230278972A1, “SUBSTITUTED HALOALKYL SULFONANILIDE HERBICIDES” (FMC Corporation, priority 2020, published 2023)

What was measured:
Assay type in all cases: in vivo
[1] = test system: Foxtail, Giant (giant foxtail, Setaria faberi); test: Test A postemergence, Foxtail, Giant; settings: Postemergence, 0 to 100 scale (0 no effect, 100 complete control); for Foxtail, Giant plant response rating: visual injury vs untreated controls after approx. 10 days
Summary of the method: (§1)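 Compounds in non-phytotoxic solvent with surfactant. Soil: loam/sand. Preemergence via directed soil spray after seeding; postemergence on seedlings 2–10 cm, one- to two-leaf.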

[2] = test system: ragweed (common ragweed, Ambrosia artemisiifolia); test: Test A preemergence, ragweed; settings: Preemergence; for Ragweed plant response rating: visual injury on 0 to 100 scale (0 no effect, 100 complete control), approximately 10 days; for Plant response rating, Ragweed: 0 to 100 scale (0 no effect, 100 complete control)
Summary of the method: as §1

[3] = test system: Foxtail, Giant (giant foxtail, Setaria faberi); test: Test A preemergence, Foxtail, Giant; settings: Preemergence; for Foxtail, Giant plant response rating: visual injury on 0 to 100 scale (0 no effect, 100 complete control), approximately 10 days; for Plant response rating, Foxtail, Giant: 0 to 100 scale (0 no effect, 100 complete control)
Summary of the method: as §1

[4] = test system: barnyardgrass (Echinochloa crus-galli); test: Test A preemergence, barnyardgrass; settings: Preemergence; for Barnyardgrass plant response rating: visual injury on 0 to 100 scale (0 no effect, 100 complete control), approximately 10 days; for Plant response rating, Barnyardgrass: 0 to 100 scale (0 no effect, 100 complete control)
Summary of the method: as §1

[5] = test system: barnyardgrass (Echinochloa crus-galli); test: Test A postemergence, barnyardgrass; settings: Postemergence, 0 to 100 scale (0 no effect, 100 complete control); for Barnyardgrass plant response rating: visual injury vs untreated controls after approx. 10 days
Summary of the method: (§2)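 Whole-plant herbicidal screen in pots of loam blended with sand. Sprays used a surfactant-containing, non-phytotoxic solvent vehicle. Timing was preemergence soil-directed at planting or postemergence at the one- to two-leaf stage (2–10 cm).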

[6] = test system: galium (catchweed bedstraw, Galium aparine); test: Test A postemergence, galium; settings: Postemergence, 0 to 100 scale (0 no effect, 100 complete control); for Galium plant response rating: visual injury vs untreated controls after approx. 10 days
Summary of the method: as §2

[7] = test system: Ryegrass, Italian (Italian ryegrass, Lolium multiflorum); test: Test A preemergence, Ryegrass, Italian; settings: Preemergence; for Ryegrass, Italian plant response rating: visual injury on 0 to 100 scale (0 no effect, 100 complete control), approximately 10 days; for Plant response rating, Ryegrass, Italian: 0 to 100 scale (0 no effect, 100 complete control)
Summary of the method: as §1

[8] = test system: pigweed (Amaranthus retroflexus); test: Test A preemergence, pigweed; settings: for Pigweed plant response rating: visual injury on 0 to 100 scale (0 no effect, 100 complete control), approximately 10 days; for Plant response rating, Pigweed: 0 to 100 scale (0 no effect, 100 complete control)
Summary of the method: as §2

[9] = test system: Ryegrass, Italian (Italian ryegrass, Lolium multiflorum); test: Test A postemergence, Ryegrass, Italian; settings: Postemergence, 0 to 100 scale (0 no effect, 100 complete control); for Ryegrass, Italian plant response rating: visual injury vs untreated controls after approx. 10 days
Summary of the method: as §1

corn (Zea mays) = test: Test A postemergence, corn; settings: Postemergence, 0 to 100 scale (0 no effect, 100 complete control); for Corn plant response rating: visual injury vs untreated controls after approx. 10 days
Summary of the method: as §1

[10] = test system: ragweed (common ragweed, Ambrosia artemisiifolia); test: Test A postemergence, ragweed; settings: Postemergence, 0 to 100 scale (0 no effect, 100 complete control); for Ragweed plant response rating: visual injury vs untreated controls after approx. 10 days
Summary of the method: as §1

[11] = test system: blackgrass (Alopecurus myosuroides); test: Test A postemergence, blackgrass; settings: Postemergence, 0 to 100 scale (0 no effect, 100 complete control); for Blackgrass plant response rating: visual injury vs untreated controls after approx. 10 days
Summary of the method: as §1

[12] = test system: wheat (Triticum aestivum); test: Test A postemergence, wheat; settings: Postemergence, 0 to 100 scale (0 no effect, 100 complete control); for Wheat plant response rating: visual injury vs untreated controls after approx. 10 days
Summary of the method: as §2

kochia (Bassia scoparia) [13] = test: Test A preemergence, kochia; settings: Preemergence; for Kochia plant response rating: visual injury on 0 to 100 scale (0 no effect, 100 complete control), approximately 10 days; for Plant response rating, Kochia: 0 to 100 scale (0 no effect, 100 complete control)
Summary of the method: as §1

[14] = test system: pigweed (Amaranthus retroflexus); test: Test A postemergence, pigweed; settings: Postemergence, 0 to 100 scale (0 no effect, 100 complete control); for Pigweed plant response rating: visual injury vs untreated controls after approx. 10 days
Summary of the method: as §1

kochia (Bassia scoparia) [15] = test: Test A postemergence, kochia; settings: Postemergence, 0 to 100 scale (0 no effect, 100 complete control); for Kochia plant response rating: visual injury vs untreated controls after approx. 10 days
Summary of the method: as §1

[16] = 125 g ai/ha, visual injury approx. 10 days
[17] = 31 g ai/ha, visual injury, approx. 10 days
[18] = 500 g ai/ha, visual injury, approx. 10 days
[19] = 125 g ai/ha, visual injury, approx. 10 days

Cc1ccc(-c2ccnn(C)c2=O)cc1N(S(=O)(=O)C(F)(F)F)S(=O)(=O)C(F)(F)F [Compound 66]
Plant response rating, Foxtail, Giant [1, 16]: 0
Foxtail, Giant plant response rating ([1]; 500 g ai/ha): 30
Ragweed plant response rating ([2]; 125 g ai/ha): 0
Plant response rating, Ragweed ([2]; 500 g ai/ha): 10
Foxtail, Giant plant response rating ([3]; 125 g ai/ha): 0
Plant response rating, Foxtail, Giant ([3]; 500 g ai/ha): 60
Barnyardgrass plant response rating ([4]; 125 g ai/ha): 0
Plant response rating, Barnyardgrass ([4]; 500 g ai/ha): 90
Plant response rating, Barnyardgrass [5, 16]: 0
Barnyardgrass plant response rating ([5]; 500 g ai/ha): 30
Plant response rating, Galium [6, 16]: 50
Galium plant response rating ([6]; 500 g ai/ha): 70
Ryegrass, Italian plant response rating ([7]; 125 g ai/ha): 0
Plant response rating, Ryegrass, Italian ([7]; 500 g ai/ha): 0
Pigweed plant response rating ([8]; 125 g ai/ha): 0
Plant response rating, Pigweed ([8]; 500 g ai/ha): 30
Plant response rating, Ryegrass, Italian [9, 16]: 0
Ryegrass, Italian plant response rating ([9]; 500 g ai/ha): 0
Plant response rating, Corn (corn (Zea mays); [16]): 0
Corn plant response rating (corn (Zea mays); 500 g ai/ha): 10
Plant response rating, Ragweed [10, 16]: 0
Ragweed plant response rating ([10]; 500 g ai/ha): 0
Plant response rating, Blackgrass [11, 16]: 0
Blackgrass plant response rating ([11]; 500 g ai/ha): 0
Plant response rating, Wheat [12, 16]: 0
Wheat plant response rating ([12]; 500 g ai/ha): 40
Kochia plant response rating (kochia (Bassia scoparia) [13]; 125 g ai/ha): 0
Plant response rating, Kochia (kochia (Bassia scoparia) [13]; 500 g ai/ha): 40
Plant response rating, Pigweed [14, 16]: 0
Pigweed plant response rating ([14]; 500 g ai/ha): 50
Plant response rating, Kochia (kochia (Bassia scoparia) [15]; [16]): 0
Kochia plant response rating (kochia (Bassia scoparia) [15]; 500 g ai/ha): 10

COC1CCCN(C(=O)c2cc(N(C(=O)C(C)C)S(=O)(=O)C(F)(F)F)c(C)cc2C)C1 (centres unmarked) [Compound 91]
Plant response rating, Foxtail, Giant ([1]; 31 g ai/ha): 0
Plant response rating, Foxtail, Giant [1, 16]: 10
Plant response rating, Ragweed [2, 17]: 0
Ragweed plant response rating ([2]; 125 g ai/ha): 20
Plant response rating, Foxtail, Giant [3, 17]: 20
Foxtail, Giant plant response rating ([3]; 125 g ai/ha): 100
Plant response rating, Barnyardgrass [4, 17]: 0
Barnyardgrass plant response rating ([4]; 125 g ai/ha): 90
Plant response rating, Barnyardgrass ([5]; 31 g ai/ha): 0
Plant response rating, Barnyardgrass [5, 16]: 0
Plant response rating, Galium ([6]; 31 g ai/ha): 70
Plant response rating, Galium [6, 16]: 70
Plant response rating, Ryegrass, Italian [7, 17]: 30
Ryegrass, Italian plant response rating ([7]; 125 g ai/ha): 50
Plant response rating, Pigweed [8, 17]: 60
Pigweed plant response rating ([8]; 125 g ai/ha): 100
Plant response rating, Ryegrass, Italian ([9]; 31 g ai/ha): 0
Plant response rating, Ryegrass, Italian [9, 16]: 10
Plant response rating, Corn (corn (Zea mays); 31 g ai/ha): 0
Plant response rating, Corn (corn (Zea mays); [16]): 0
Plant response rating, Ragweed ([10]; 31 g ai/ha): 0
Plant response rating, Ragweed [10, 16]: 40
Plant response rating, Blackgrass ([11]; 31 g ai/ha): 0
Plant response rating, Blackgrass [11, 16]: 0
Plant response rating, Wheat ([12]; 31 g ai/ha): 10
Plant response rating, Wheat [12, 16]: 60
Plant response rating, Kochia (kochia (Bassia scoparia) [13]; [17]): 0
Kochia plant response rating (kochia (Bassia scoparia) [13]; 125 g ai/ha): 60
Plant response rating, Pigweed ([14]; 31 g ai/ha): 0
Plant response rating, Pigweed [14, 16]: 40
Plant response rating, Kochia (kochia (Bassia scoparia) [15]; 31 g ai/ha): 10
Plant response rating, Kochia (kochia (Bassia scoparia) [15]; [16]): 10

Cc1cc(Cl)c(NS(=O)(=O)C(F)(F)F)cc1C(=O)N1CC(C)OC(C)C1 (centres unmarked) [Compound 20]
Plant response rating, Foxtail, Giant [1, 16]: 60
Plant response rating, Foxtail, Giant [1, 18]: 90
Ragweed plant response rating ([2]; 125 g ai/ha): 90
Plant response rating, Ragweed ([2]; 500 g ai/ha): 100
Foxtail, Giant plant response rating ([3]; 125 g ai/ha): 80
Plant response rating, Foxtail, Giant ([3]; 500 g ai/ha): 100
Barnyardgrass plant response rating ([4]; 125 g ai/ha): 100
Plant response rating, Barnyardgrass ([4]; 500 g ai/ha): 100
Plant response rating, Barnyardgrass [5, 16]: 60
Plant response rating, Barnyardgrass [5, 18]: 80
Plant response rating, Galium [6, 16]: 90
Plant response rating, Galium [6, 18]: 90
Ryegrass, Italian plant response rating ([7]; 125 g ai/ha): 50
Plant response rating, Ryegrass, Italian ([7]; 500 g ai/ha): 100
Pigweed plant response rating ([8]; 125 g ai/ha): 20
Plant response rating, Pigweed ([8]; 500 g ai/ha): 80
Plant response rating, Ryegrass, Italian [9, 16]: 70
Plant response rating, Ryegrass, Italian [9, 18]: 70
Plant response rating, Corn (corn (Zea mays); [16]): 10
Plant response rating, Corn (corn (Zea mays); [18]): 70
Plant response rating, Ragweed [10, 16]: 80
Plant response rating, Ragweed [10, 18]: 80
Plant response rating, Blackgrass [11, 16]: 30
Plant response rating, Blackgrass [11, 18]: 30
Plant response rating, Wheat [12, 16]: 60
Plant response rating, Wheat [12, 18]: 70
Kochia plant response rating (kochia (Bassia scoparia) [13]; 125 g ai/ha): 40
Plant response rating, Kochia (kochia (Bassia scoparia) [13]; 500 g ai/ha): 90
Plant response rating, Pigweed [14, 16]: 30
Plant response rating, Pigweed [14, 18]: 80
Plant response rating, Kochia (kochia (Bassia scoparia) [15]; [16]): 10
Plant response rating, Kochia (kochia (Bassia scoparia) [15]; [18]): 30

C#CCN(C)C(=O)c1cc(NS(=O)(=O)C(F)(F)F)c(C)cc1C [Compound 189]
Plant response rating, Foxtail, Giant ([1]; 125 g ai/ha): 60
Foxtail, Giant plant response rating ([1]; 500 g ai/ha): 90
Plant response rating, Ragweed [2, 19]: 80
Plant response rating, Ragweed ([2]; 500 g ai/ha): 90
Plant response rating, Foxtail, Giant [3, 19]: 100
Plant response rating, Foxtail, Giant ([3]; 500 g ai/ha): 100
Plant response rating, Barnyardgrass [4, 19]: 80
Plant response rating, Barnyardgrass ([4]; 500 g ai/ha): 100
Plant response rating, Barnyardgrass ([5]; 125 g ai/ha): 80
Barnyardgrass plant response rating ([5]; 500 g ai/ha): 90
Plant response rating, Galium ([6]; 125 g ai/ha): 90
Galium plant response rating ([6]; 500 g ai/ha): 90
Plant response rating, Ryegrass, Italian [7, 19]: 90
Plant response rating, Ryegrass, Italian ([7]; 500 g ai/ha): 100
Plant response rating, Pigweed [8, 19]: 90
Plant response rating, Pigweed ([8]; 500 g ai/ha): 100
Plant response rating, Ryegrass, Italian ([9]; 125 g ai/ha): 80
Ryegrass, Italian plant response rating ([9]; 500 g ai/ha): 80
Plant response rating, Corn (corn (Zea mays); 125 g ai/ha): 20
Corn plant response rating (corn (Zea mays); 500 g ai/ha): 80
Plant response rating, Ragweed ([10]; 125 g ai/ha): 90
Ragweed plant response rating ([10]; 500 g ai/ha): 90
Plant response rating, Blackgrass ([11]; 125 g ai/ha): 30
Blackgrass plant response rating ([11]; 500 g ai/ha): 20
Plant response rating, Wheat ([12]; 125 g ai/ha): 50
Wheat plant response rating ([12]; 500 g ai/ha): 70
Plant response rating, Kochia (kochia (Bassia scoparia) [13]; [19]): 80
Plant response rating, Kochia (kochia (Bassia scoparia) [13]; 500 g ai/ha): 100
Plant response rating, Pigweed ([14]; 125 g ai/ha): 60
Pigweed plant response rating ([14]; 500 g ai/ha): 90
Plant response rating, Kochia (kochia (Bassia scoparia) [15]; 125 g ai/ha): 20
Kochia plant response rating (kochia (Bassia scoparia) [15]; 500 g ai/ha): 80
